Assay results as given in patent publication US9616129B2, “Compositions and methods for potentiating immune response, enhancing immunotherapy, and increasing vaccine potency” (Nitor Therapeutics, priority 2013, dated 2017).

Key:
Type in all cases: cell-based
human TLR2 = target: T1, human TLR2 (Homo sapiens, UniProt O60603); experiment: TLR ligand screening, NF-κB SEAP reporter in HEK293 cells expressing TLR2; details: one concentration: Guanosine 100 uM, NTR001 10 uM, Inosine 100 uM; FIG. 2
T1 construct: expressed in transfected cells; host or cells: HEK293
Procedure: (§1) TLR stimulation is tested by assessing NF-κB activation in HEK293 cells expressing a given TLR. The Secreted Embryonic Alkaline Phosphatase (SEAP) reporter is under the control of a promoter inducible by the transcription factor NF-κB. This reporter gene allows the monitoring of signaling through the TLR, based on the activation of NF-κB. The compounds are evaluated at one concentration and compared to control ligands. This step is performed in triplicate.

human TLR8 = target: T2, human TLR8 (Homo sapiens, UniProt Q9NR97); experiment: TLR ligand screening, NF-κB SEAP reporter in HEK293 cells expressing TLR8; details: one concentration: NTR001 10 uM, Inosine 100 uM; FIG. 2
T2 construct: expressed in transfected cells; host or cells: HEK293
T2 sequence (Q9NR97 27-1041): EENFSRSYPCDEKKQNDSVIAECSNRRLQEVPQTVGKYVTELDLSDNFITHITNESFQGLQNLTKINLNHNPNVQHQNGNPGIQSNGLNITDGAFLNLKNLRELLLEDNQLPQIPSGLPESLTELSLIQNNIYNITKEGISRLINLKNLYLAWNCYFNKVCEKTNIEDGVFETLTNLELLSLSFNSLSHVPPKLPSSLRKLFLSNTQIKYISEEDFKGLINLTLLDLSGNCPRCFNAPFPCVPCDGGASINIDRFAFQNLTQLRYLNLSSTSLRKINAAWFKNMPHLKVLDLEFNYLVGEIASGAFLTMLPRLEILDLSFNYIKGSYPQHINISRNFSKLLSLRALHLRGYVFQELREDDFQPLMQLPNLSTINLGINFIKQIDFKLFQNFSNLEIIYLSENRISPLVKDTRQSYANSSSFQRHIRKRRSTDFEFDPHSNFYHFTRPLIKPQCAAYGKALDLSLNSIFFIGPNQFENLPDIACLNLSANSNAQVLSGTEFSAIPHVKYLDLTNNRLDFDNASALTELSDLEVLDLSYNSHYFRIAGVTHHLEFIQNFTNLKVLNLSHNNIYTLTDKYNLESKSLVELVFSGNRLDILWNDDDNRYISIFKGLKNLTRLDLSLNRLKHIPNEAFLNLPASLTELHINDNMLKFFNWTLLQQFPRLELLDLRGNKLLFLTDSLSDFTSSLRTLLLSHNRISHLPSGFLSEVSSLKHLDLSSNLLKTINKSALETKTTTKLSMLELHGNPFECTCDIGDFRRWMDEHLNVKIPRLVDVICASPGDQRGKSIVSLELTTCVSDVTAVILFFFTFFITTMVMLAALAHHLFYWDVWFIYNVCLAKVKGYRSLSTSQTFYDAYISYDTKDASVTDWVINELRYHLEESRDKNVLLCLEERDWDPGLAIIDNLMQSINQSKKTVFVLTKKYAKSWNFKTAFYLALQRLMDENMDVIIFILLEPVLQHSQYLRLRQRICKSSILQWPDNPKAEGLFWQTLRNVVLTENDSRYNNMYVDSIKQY
Procedure: as §1

human TLR9 = target: T3, human TLR9 (Homo sapiens, UniProt Q9NR96); experiment: TLR ligand screening, NF-κB SEAP reporter in HEK293 cells expressing TLR9; details: one concentration: NTR001 10 uM, Inosine 100 uM; FIG. 2
T3 construct: expressed in transfected cells; host or cells: HEK293
T3 sequence (Q9NR96 26-1032): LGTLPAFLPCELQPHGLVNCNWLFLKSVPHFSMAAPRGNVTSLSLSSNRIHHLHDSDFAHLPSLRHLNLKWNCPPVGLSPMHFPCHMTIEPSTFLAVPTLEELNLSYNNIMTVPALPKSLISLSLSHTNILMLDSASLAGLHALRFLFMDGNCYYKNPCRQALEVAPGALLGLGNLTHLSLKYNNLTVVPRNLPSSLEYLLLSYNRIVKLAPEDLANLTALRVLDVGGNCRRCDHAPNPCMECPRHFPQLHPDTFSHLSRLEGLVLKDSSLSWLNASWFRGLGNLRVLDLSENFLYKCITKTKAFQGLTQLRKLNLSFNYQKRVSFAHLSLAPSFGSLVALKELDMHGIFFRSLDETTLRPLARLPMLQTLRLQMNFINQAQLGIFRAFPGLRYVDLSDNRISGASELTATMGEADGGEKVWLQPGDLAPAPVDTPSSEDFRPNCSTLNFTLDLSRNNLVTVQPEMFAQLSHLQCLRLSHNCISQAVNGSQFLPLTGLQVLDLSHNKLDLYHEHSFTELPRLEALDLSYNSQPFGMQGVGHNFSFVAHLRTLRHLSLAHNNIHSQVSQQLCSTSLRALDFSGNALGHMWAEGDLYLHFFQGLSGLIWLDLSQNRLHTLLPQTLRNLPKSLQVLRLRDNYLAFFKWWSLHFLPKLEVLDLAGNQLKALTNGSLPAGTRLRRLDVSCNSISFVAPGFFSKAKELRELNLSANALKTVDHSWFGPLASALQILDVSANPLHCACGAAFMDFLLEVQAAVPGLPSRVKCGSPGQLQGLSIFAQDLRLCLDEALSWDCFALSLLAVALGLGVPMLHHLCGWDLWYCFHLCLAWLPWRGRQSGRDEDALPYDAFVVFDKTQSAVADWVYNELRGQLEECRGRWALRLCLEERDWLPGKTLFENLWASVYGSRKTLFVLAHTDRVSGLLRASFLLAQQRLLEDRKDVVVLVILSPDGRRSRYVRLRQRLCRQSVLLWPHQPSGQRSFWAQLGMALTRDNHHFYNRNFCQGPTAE
Procedure: as §1

T1 sequence (O60603 21-784): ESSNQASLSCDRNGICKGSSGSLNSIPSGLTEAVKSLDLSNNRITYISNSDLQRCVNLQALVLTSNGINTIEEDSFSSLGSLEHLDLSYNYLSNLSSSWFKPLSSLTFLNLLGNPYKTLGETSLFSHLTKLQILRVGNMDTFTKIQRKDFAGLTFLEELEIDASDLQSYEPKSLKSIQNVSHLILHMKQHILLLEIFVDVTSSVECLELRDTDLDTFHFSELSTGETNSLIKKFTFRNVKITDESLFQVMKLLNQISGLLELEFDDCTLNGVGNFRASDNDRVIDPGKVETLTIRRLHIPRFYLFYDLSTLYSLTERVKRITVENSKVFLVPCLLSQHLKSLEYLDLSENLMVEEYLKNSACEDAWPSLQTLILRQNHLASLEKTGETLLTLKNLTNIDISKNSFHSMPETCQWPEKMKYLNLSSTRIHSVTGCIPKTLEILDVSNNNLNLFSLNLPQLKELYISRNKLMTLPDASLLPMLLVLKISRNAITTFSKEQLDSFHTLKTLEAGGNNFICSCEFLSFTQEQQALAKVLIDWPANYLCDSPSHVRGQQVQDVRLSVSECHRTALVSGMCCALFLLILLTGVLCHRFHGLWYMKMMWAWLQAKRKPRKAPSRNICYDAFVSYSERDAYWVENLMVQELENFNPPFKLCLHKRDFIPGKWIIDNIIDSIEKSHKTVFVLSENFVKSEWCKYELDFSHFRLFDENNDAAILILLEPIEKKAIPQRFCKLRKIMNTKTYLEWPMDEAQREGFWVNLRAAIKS

OC[C@H]1O[C@@H](n2cnc3c(O)ncnc32)[C@H](O)[C@@H]1O [Inosine]
do not exhibit a stimulatory effect: stimulatory effect on human TLR2 (NF-κB activation) (human TLR2) | stimulatory effect on human TLR8 (NF-κB activation) (human TLR8) | stimulatory effect on human TLR9 (NF-κB activation) (human TLR9)

O=c1[nH]cnc2c([C@@H]3N[C@H](CO)[C@@H](O)[C@H]3O)c[nH]c12 [NTR001, 7-[(2S,3S,4R,5R)-3,4-dihydroxy-5-(hydroxymethyl)-2-pyrrolidinyl]-1,5-dihydro-4H-pyrrolo[3,2-d]pyrimidin-4-one]
do not exhibit a stimulatory effect: stimulatory effect on human TLR2 (NF-κB activation) (human TLR2) | stimulatory effect on human TLR8 (NF-κB activation) (human TLR8) | stimulatory effect on human TLR9 (NF-κB activation) (human TLR9)
